Structures can show the parent of a compound that is named as a salt. Where two headings read alike, the source gives them in different places.
Legend:
[1] = biological target: T1, MAO-A (Mus musculus, UniProt Q64133); assay: Inhibition of MAO activity ex vivo (brain); type: in vivo, mice
T1 construct: from tissue; host or cells: mouse brain
T1 sequence (Q64133 1-526): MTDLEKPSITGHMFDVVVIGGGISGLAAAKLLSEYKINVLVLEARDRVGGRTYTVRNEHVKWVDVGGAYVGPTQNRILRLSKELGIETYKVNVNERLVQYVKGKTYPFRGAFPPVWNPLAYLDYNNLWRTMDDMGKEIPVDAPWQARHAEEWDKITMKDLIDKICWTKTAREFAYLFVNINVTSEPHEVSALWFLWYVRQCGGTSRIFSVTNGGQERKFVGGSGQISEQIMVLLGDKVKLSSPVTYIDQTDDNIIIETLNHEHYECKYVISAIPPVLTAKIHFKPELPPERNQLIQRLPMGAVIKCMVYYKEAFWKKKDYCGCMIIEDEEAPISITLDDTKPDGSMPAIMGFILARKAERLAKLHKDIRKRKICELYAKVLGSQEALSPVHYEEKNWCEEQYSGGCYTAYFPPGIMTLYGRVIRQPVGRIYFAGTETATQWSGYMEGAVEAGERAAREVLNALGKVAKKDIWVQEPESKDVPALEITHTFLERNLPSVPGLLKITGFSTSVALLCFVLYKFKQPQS
In short: (§1)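 Male Sabra mice dosed with compound in 0.9% saline (2-3 per dose) and killed 2 h post-dose or at peak AChE-inhibition time. Brain homogenized in 0.3 M sucrose and assayed for MAO activity with 50 μM PEA (MAO-B) or 1 mM 5-HT (MAO-A) as substrate.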

[2] = biological target: T2, MAO-B (Mus musculus, UniProt Q8BW75); assay: Inhibition of MAO activity ex vivo (brain); type: in vivo, mice
T2 construct: from tissue; host or cells: mouse brain
T2 sequence (Q8BW75 1-520): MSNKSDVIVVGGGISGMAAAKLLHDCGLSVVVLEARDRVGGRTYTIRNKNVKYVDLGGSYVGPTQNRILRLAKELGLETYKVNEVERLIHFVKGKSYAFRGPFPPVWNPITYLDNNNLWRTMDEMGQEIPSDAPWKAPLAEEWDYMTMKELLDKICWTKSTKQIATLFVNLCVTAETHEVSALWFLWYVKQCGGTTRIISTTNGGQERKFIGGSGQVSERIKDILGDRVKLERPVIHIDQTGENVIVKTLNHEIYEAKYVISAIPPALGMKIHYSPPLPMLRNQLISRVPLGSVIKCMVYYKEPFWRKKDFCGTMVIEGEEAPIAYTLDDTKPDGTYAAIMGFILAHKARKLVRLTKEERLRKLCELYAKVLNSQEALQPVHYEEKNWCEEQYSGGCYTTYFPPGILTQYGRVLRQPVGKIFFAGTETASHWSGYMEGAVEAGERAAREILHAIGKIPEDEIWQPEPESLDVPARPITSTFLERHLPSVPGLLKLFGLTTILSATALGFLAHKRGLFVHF
In short: as §1

[3] = test system: mice, hypobaric hypoxic model; assay: animal or person; type: in vivo; conditions: Mus musculus; for response vs control in vivo at 8 mg/kg: read-out: Protection (survival time), 8 mg/kg sc, 60 min before hypoxia
Description: A 12 liter desiccator (desiccator A) and a 2.5 liter desiccator (desiccator B) were separately connected to a vacuum pump. Desiccator B was disconnected and allowed to equilibrate with room air whilst desiccator A was evacuated to a pressure of 100 mmHg. Four male ICR albino mice (22-28 g) were placed in desiccator B. Desiccator B was then closed to room air and connected to desiccator A. The pressure inside desiccator B was monitored using a mercury manometer and at the point were the pressure in desiccator B reached 200 mmpg (usually within 14 seconds), the two desiccators were disconnected from the vacuum pump and the pump switched off. The survival time from the moment of induction of hypoxia to the time of cessation of respiration was recorded for each mouse for a maximum of 15 minutes after which time room air was reintroduced to desiccator B. Survivors were monitored for signs of lethargy or vitality.
Effect of drug treatment was assessed as the percent of the survival time of the drug treated group with respect to the saline injected or vehicle injected control group. […] The effect of each dose of test drug was determined in duplicate i.e. two groups of 4 mice.
Positive reference drugs were sodium pentobarbital at a dose of 40 mg/kg, and diazepam 10 mg/kg given 0.5 h prior to hypoxia, physostigmine 0.2 and 0.4 mg/kg and neostigmine 0.2 mg/kg given sc 30 min before hypoxia. Methyl atropine 1 mg/kg was given sc. 10 min. before physostigmine.
Test drugs were dissolved in 0.9% saline, and injected sc. in the nip of the neck at a dose in accordance with body weight, 60-90 min. before hypoxia. The volume of injection was 0.2-0.3 mL per mouse (10 mL/kg). The initial dose was about one third of the reported LD50 for acetylcholine esterase inhibition. If no protection could be obtained, the dose was further increased to the nearest non-toxic dose. In case of protection, the dose was further reduced in an attempt to locate the “protective” dose range.

[4] = test system: mice
Experimental: Therapeutic Ratio was calculated as LD50 divided by ED50 of ex vivo acetylcholine esterase inhibition.

[5] = biological target: T3, MAO-A (Rattus norvegicus, UniProt P21396); assay: Inhibition of MAO activity in vitro, 5-HT as substrate; type: biochemical; set-up: The MAO enzyme source was a homogenate of rat brain in 0.3M sucrose; from tissue; host or cells: rat brain homogenate, 600 g supernatant
T3 sequence (P21396 1-526): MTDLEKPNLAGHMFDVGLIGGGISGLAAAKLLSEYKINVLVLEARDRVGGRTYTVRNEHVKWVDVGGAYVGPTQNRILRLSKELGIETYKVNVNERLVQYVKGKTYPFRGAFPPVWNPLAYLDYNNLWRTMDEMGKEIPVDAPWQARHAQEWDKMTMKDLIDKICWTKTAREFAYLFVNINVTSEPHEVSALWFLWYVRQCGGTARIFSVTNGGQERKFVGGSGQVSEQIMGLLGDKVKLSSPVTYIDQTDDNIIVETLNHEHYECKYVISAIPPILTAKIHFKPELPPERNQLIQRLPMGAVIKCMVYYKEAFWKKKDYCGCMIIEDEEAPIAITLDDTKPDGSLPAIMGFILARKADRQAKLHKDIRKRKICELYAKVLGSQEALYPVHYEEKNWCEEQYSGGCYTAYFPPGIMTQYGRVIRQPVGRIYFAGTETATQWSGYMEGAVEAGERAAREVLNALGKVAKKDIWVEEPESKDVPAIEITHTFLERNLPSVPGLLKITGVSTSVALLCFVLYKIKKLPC
Experimental: Substrate concentrations used were 50 μM (PEA) and 1 mM (5-HT).

[6] = mice, within 6 hours after administration
[7] = MAO-A Inhibition In vitro IC50, rat brain homogenate, 5-HT substrate
[8] = sc, read-out: Protection (survival time), 50 mg/kg sc, 60 min before hypoxia

| SMILES | MAO-A Inhibition Ex vivo ED50 ([1]; mice, brain tissue) | MAO-B Inhibition Ex vivo ED50 ([2]; mice, brain tissue) | response vs control in vivo at 8 mg/kg ([3]; sc) [%] | Acute Toxicity LD50 (LD) [4, 6] [µmol/kg] | IC50 [5, 7] [µM] | response vs control in vivo at 50 mg/kg [3, 8] [%] | Acute Toxicity LD50 (LD) ([4]; mouse, in vivo) [µmol/kg] | Therapeutic Ratio LD/AC ([4]; mouse, in vivo) | further results |
| --- | --- | --- | --- | --- | --- | --- | --- | --- | --- |
| CN(C)C(=O)Oc1ccc2c(c1)C(N)CC2 (centres unmarked) [Compound 1] | >>80 μmoles/kg | >>80 μmoles/kg | 637 ± 116 | 83.8 | 75 |  |  |  | response vs control in vivo at 2 mg/kg ([3]; sc, read-out: Protection (survival time), 2 mg/kg sc, 60 min before hypoxia): 120 ± 51%; response vs control in vivo at 4 mg/kg ([3]; sc, read-out: Protection (survival time), 4 mg/kg sc, 60 min before hypoxia): 470 ± 200% |
| CCN(C)C(=O)Oc1ccc2c(c1)C(NC)CC2 (centres unmarked) [Compound 10] | >175 µmol/kg | >175 µmol/kg |  | 740 |  |  |  |  | response vs control in vivo at 10 mg/kg ([3]; sc, read-out: Protection (survival time), 10 mg/kg sc, 90 min before hypoxia): 304 ± 129%; response vs control in vivo at 25 mg/kg ([3]; sc, read-out: Protection (survival time), 25 mg/kg sc, 90 min before hypoxia): 700 ± 201%; response vs control in vivo at 50 mg/kg ([3]; sc, read-out: Protection (survival time), 50 mg/kg sc, 90 min before hypoxia): 705 ± 101%; IC50 ([5]; rat brain homogenate, 5-HT substrate, read-out: MAO-A Inhibition In vitro IC50): 22 µM |
| C#CCNC1CCc2ccc(OC(=O)N(C)C)cc21 (centres unmarked) [Compound 24, 6-(N,N-Dimethylcarbamyloxy)-N-propargyl aminoindan mesylate] | >120 µmol/kg | 100 µmol/kg |  |  | 850 | 738 | 179 |  | response vs control in vivo at 21 mg/kg ([3]; sc, read-out: Protection (survival time), 21 mg/kg sc, 60 min before hypoxia): 269 ± 166% |
| C#CCNC1CCc2ccc(OC(=O)N(C)CC)cc21 (centres unmarked) [Compound 25, 6-(N-Me, N-Etcarbamyloxy) N-propargyl aminoindan, HCl] |  |  |  | 1400 |  |  |  | 10.8 | MAO-A Inhibition Ex vivo ED50 ([1]; mouse, in vivo): >>350 μmoles/kg; MAO-B Inhibition Ex vivo ED50 ([2]; mouse, in vivo): 200 µmol/kg; response vs control in vivo at 25 mg/kg ([3]; 25 mg/kg sc, 60 min before hypoxia, read-out: Protection (survival time)): 84 ± 35%; response vs control in vivo at 50 mg/kg ([3]; 50 mg/kg sc, 60 min before hypoxia, read-out: Protection (survival time)): 380 ± 231%; response vs control in vivo at 75 mg/kg ([3]; 75 mg/kg sc, 60 min before hypoxia, read-out: Protection (survival time)): 559 ± 225%; response vs control in vivo at 100 mg/kg ([3]; 100 mg/kg sc, 60 min before hypoxia, read-out: Protection (survival time)): 761 ± 91%; IC50 ([5]; MAO-A Inhibition In vitro IC50): 270 µM |
| C#CCNC1CCc2cccc(OC(=O)N(C)C)c21 (centres unmarked) [Compound 27] | >>160 μmoles/kg | >>160 μmoles/kg | 119 ± 45 |  | > 1000 | 455 ± 23 | 300 | 10 | response vs control in vivo at 3 mg/kg ([3]; sc, read-out: Protection (survival time), 3 mg/kg sc, 60 min before hypoxia): 287 ± 319%; response vs control in vivo at 15 mg/kg ([3]; sc, read-out: Protection (survival time), 15 mg/kg sc, 60 min before hypoxia): 143 ± 56% |
| C#CCN(C)C1CCc2ccc(OC(=O)N(C)C)cc21 (centres unmarked) [Compound 29] | 50 µmol/kg | 30 µmol/kg |  |  | 40 |  | 500 | 9.3 | response vs control in vivo at 25 mg/kg ([3]; sc, read-out: Protection (survival time), 25 mg/kg sc, 30 min before hypoxia): 273 ± 183%; response vs control in vivo at 25 mg/kg ([3]; sc, read-out: Protection (survival time), 25 mg/kg sc, 60 min before hypoxia): 131 ± 56%; response vs control in vivo at 53 mg/kg ([3]; sc, read-out: Protection (survival time), 53 mg/kg sc, 60 min before hypoxia): 638 ± 10%; response vs control in vivo at 77 mg/kg ([3]; sc, read-out: Protection (survival time), 77 mg/kg sc, 60 min before hypoxia): 508 ± 206% |

Reference: patent publication USRE39616E1, “Aminoindan derivatives” (priority 1996, dated 2007)
